Primed or numbered codes have the meaning given here. *: point of attachment. Bz′ = not defined here; NHNHAc = CC(=O)NN*; NHPr = CCCN*; For = O=C*; NHOH = ON*
What was measured:
Format in all cases: in vivo, human
[1] = system: osteoarthritis of the knees; experiment: Example 94 (second): osteoarthritic knees, intra-articular injection of N-Bz hydrazide; conditions: 0.08% (0.8 mg/ml) in water, 1 ml per knee intra-articular
Experimental: A subject with osteoarthritis of the knees that progressively worsened over the years, evaluated the analgesic effectiveness of many topical preparations of tetrapeptide derivatives of the invention on numerous occasions. After such experiences they decided to self-inject […] knees with a sterile aqueous preparation of N-Bz-Tyr-Pro-Phe-Phe-NHNH2 (SEQ ID NO: 91) at a concentration of 0.08% (0.8 mg/ml) in water. Each knee was injected with 1 ml (0.8 mg) of the preparation via the sub-patellar route. […] The knees felt more comfortable than usual after 24 hours. The improvement from […] was judged to be more than 90% by clinical evaluation.

[2] = system: psoriatic arthritis, fingers and wrists; experiment: Example 95: comparative analgesic efficacy on pain of psoriatic arthritis, topical; conditions: for pain relief: 1% (w/v) in WEP442, topical to fingers and wrists
Excerpt: […] Treatment of the subject over the years included methotrexate and other antimetabolites, and in recent years, drugs known as biologic medications. While these agents provided intervals of relief, none provided lasting benefit. Over the past decade, painful arthritis developed in both hands and knees, and in numerous joints of the fingers. Three related tetrapeptide derivatives, 1% (w/v) in vehicle WEP442, were topically applied to the fingers and wrists of both hands one at a time. […] Analgesic efficacy was rated by the subject as 75%.

[3] = system: headache; experiment: Example 52: analgesic effect on headache; conditions: two 500 mg tablets, oral
Excerpt: At 5:30 p.m., the headache pain was becoming more intense, at which time they topically applied a composition containing 1% (w/v) of N-Pg-Tyr-Pro-Phe-Phe-NH2 (SEQ ID NO: 44) in WEP442 to the entire forehead and temporal areas. […] There was no recurrence of symptoms over the next 3 days of follow-up time.

[4] = system: severe osteoarthritis of both knees; experiment: Example 88: analgesic efficacy of eight derivatives on severe osteoarthritis, topical; conditions: 1% (w/v) in WEP442, topical to the knees
Experimental: A subject with severe osteoarthritis of both knees for a duration of about 7 years evaluated numerous tetrapeptide derivatives over the past years. […] Over the course of 3 weeks, this subject evaluated the analgesic efficacy of eight (8) endomorphin-2 tetrapeptide derivatives in WEP442 at a concentration of 1% (w/v) applied topically to the knees.
Reapplication at the end of that time again provided the same effect. Application at bedtime provided relief of pain for 7 hours. The same results were achieved the next day (3+ to 4+ effect).
A second application, about 15 minutes later, provided somewhat more relief (2+ effect).
Application at 9:30 p.m. provided relief until 5:30 a.m., and similar results were achieved the next day (3+ to 4+ effect).
No modification of pain in the right knee, which had received application of vehicle WEP442 as a control, was detected. Application of the composition containing the tetrapeptide derivative to the right knee about 15 minutes later provided prompt relief of pain. Pain relief in both knees lasted for about 5 hours (3+ to 4+ effect).
Relief lasted for about 3 hours. Re-application at that time provided the same degree of pain relief in about 5 minutes, which lasted about another 3 hours (2+ effect).
For the above same subject, the composition containing 1% (w/v) of N-Fo-Tyr-Pro-Phe-Phe-NH2 (SEQ ID NO: 104) in WEP442 was applied to the left knee, and the composition containing 1% (w/v) of N-Bz-Tyr-Pro-Phe-Phe-NH2 (SEQ ID NO: 84) in WEP442 was applied to the right knee moments later. Relief of pain in both knees seemed equivalent, was detectable in 5-7 minutes and lasted for about 4 hours. This procedure was repeated the next day with about the same results. The degree of pain relief from both solutions was rated as 3+ effect.

[5] = system: periostitis of right upper tibia, osteoarthritis of left knee, left hip joint pain, lower back pain; experiment: Example 87: pain relief at multiple sites in one subject, topical; conditions: for degree of analgesic effect / duration of pain relief / pain relief at the treated sites / time to pain relief: 0.8% (w/v) in WEP442, topical to the sites of pain; for duration of pain relief, right upper tibia: 0.8% (w/v) in WEP442, periostitis of right upper tibia
Excerpt: A caregiver subject, presented with (a) painful periostitis of the right upper tibia for about 3 months, (b) painful early osteoarthritis of the left knee for about 1 year, (c) painful left hip joint of about 6 months, and (d) lower back pain near the end of the work day for about 2 years.
Over the course of 16 days, this subject evaluated the analgesic efficacy of eight (8) endomorphin-2 tetrapeptide derivatives in WEP442 at a concentration of 0.8% (w/v) applied topically to the sites of pain.
The lower back pain returned toward the end of the following work day.
Relief of lower back pain lasted for 20-24 hours (4+ effect). […]
For the above same subject, the composition containing 0.8% (w/v) of N-Ac-Tyr-Pro-Phe-Phe-NHCH(CH3)2 (SEQ ID NO: 27) in WEP442 was topically applied to the right upper tibia, left knee and left hip.
For the above same subject, the composition containing 0.8% (w/v) of N-Fo-Tyr-Pro-Phe-Phe-NH2 (SEQ ID NO: 104) in WEP442 was topically applied to 3 sites. Relief of pain was variable. […] Relief of pain in the right upper tibia was complete in about 4 minutes, lasting for 12 hours.
For the above same subject, the composition containing 0.8% (w/v) of N-Bz-Tyr-Pro-Phe-Phe-NH2 (SEQ ID NO: 84) in WEP442 provided relief of pain within 2-4 minutes. On the left hip, the relief was complete, lasting for about 12 hours (4+ effect). On the left knee, relief was incomplete, about 50%, lasting for only about 3 hours (2+ effect). On the right upper tibia, relief was complete and lasted for about 12 hours (4+ effect).

[6] = system: psoriatic arthritis of interphalangeal joints of the fingers; experiment: Example 93: multiple derivatives evaluated for relief of pain associated with psoriatic arthritis, topical; conditions: 0.8% (w/v) in WEP442, topical to both hands
Excerpt: A subject with extensive plaque psoriasis and psoriatic arthritis of interphalangeal joints of the fingers evaluated multiple tetrapeptide derivatives for comparative effectiveness on relief of their painful fingers. Over the course of 4 weeks, this subject evaluated the analgesic efficacy of ten (10) endomorphin-2 tetrapeptide derivatives in WEP442 at a concentration of 0.8% (w/v) applied topically to both hands, which included all fingers.

[7] = system: psoriatic arthritis pain, fingers and wrists; experiment: Example 48: comparative analgesic efficacy, psoriatic arthritis pain of fingers and wrists, topical; conditions: 1% (w/v) in WEP442, topical
Excerpt: […] Treatment of the subject over the years included methotrexate and other antimetabolites, and in recent years drugs known as biologic medications. While these agents have provided intervals of relief, none has provided a lasting benefit. Over the past decade, painful arthritis developed in both wrists and in numerous joints of the fingers. Four related tetrapeptide derivatives, 1% (w/v) solution compositions in vehicle WEP442, one at a time, were topically applied to the fingers and wrists of both hands. […] Efficacy was rated by the subject as 4+. • (B) N-Ac-Tyr-Pro-Phe-Phe-NHNH2 (SEQ ID NO: 31) provided slow relief of pain, i.e. within about 10 minutes. […] Analgesic efficacy was judged by the subject to be 0 to 1+.

[8] = 0.8% (w/v) in WEP442, left knee
[9] = 0.8% (w/v) in WEP442, lower lumbar
[10] = 0.8% (w/v) in WEP442, right upper tibia

NNC(=O)[C@H](Cc1ccccc1)NC(=O)[C@H](Cc1ccccc1)NC(=O)[C@@H]1CCCN1C(=O)[C@H](Cc1ccc(O)cc1)NC(=O)c1ccccc1 [N-Bz-Tyr-Pro-Phe-Phe-NHNH2]
discomfort from the injections [1]: no discomfort from the injections | duration of pain relief [1]: 11 h | improvement by clinical evaluation [1]: more than 90% | pains in both knees [1]: gradually disappeared | analgesic efficacy rated by the subject ([2]; 1% (w/v) in WEP442, topical): 100% | duration of pain relief ([2]; 1% (w/v) in WEP442, topical): about 24 hours | pain relief [2]: rapid complete relief of pain

CC(=O)Nc1ccc(O)cc1 [acetaminophen, reference compound]
pain relief [3]: slight relief of pain

N-Ac-Tyr-Pro-Phe-Phe-NHCH2CH2CH3 (Ac-YPFF-NHPr; SMILES CCCNC(=O)[C@H](Cc1ccccc1)NC(=O)[C@H](Cc1ccccc1)NC(=O)[C@@H]1CCCN1C(=O)[C@H](Cc1ccc(O)cc1)NC(C)=O)
analgesic efficacy rated by the subject ([2]; 1% (w/v) in WEP442, topical): 75% | duration of pain relief ([2]; 1% (w/v) in WEP442, topical): less than 6 hours | time to pain relief ([2]; 1% (w/v) in WEP442, topical): more than 5 minutes | pain relief [2]: slower relief of pain

N-Ac-Tyr-Pro-Phe-Phe-NHNHAc (Ac-YPFF-NHNHAc; SMILES CC(=O)NNC(=O)[C@H](Cc1ccccc1)NC(=O)[C@H](Cc1ccccc1)NC(=O)[C@@H]1CCCN1C(=O)[C@H](Cc1ccc(O)cc1)NC(C)=O)
duration of pain relief [4]: about 5 hours | pain relief [4]: substantial relief of pain | time to pain relief [4]: 2 to 3 min | degree of analgesic effect [5]: 4+ | duration of pain relief [5]: 8 to 24 h | pain relief at the treated sites [5]: complete relief of pain | time to pain relief [5]: 1 to 2 min | degree of analgesic effectiveness [6]: 4+ | duration of pain relief [6]: about 7 hours | pain relief [6]: complete relief of pain | time to pain relief [6]: ≤ 2 min

N-Ac-Tyr-Pro-Phe-Phe-NHOH (Ac-YPFF-{NHOH}; SMILES CC(=O)N[C@@H](Cc1ccc(O)cc1)C(=O)N1CCC[C@H]1C(=O)N[C@@H](Cc1ccccc1)C(=O)N[C@@H](Cc1ccccc1)C(=O)NO)
duration of pain relief [4]: about 5 hours | pain relief [4]: very good relief of pain | time to pain relief [4]: 3 to 4 min | duration of relief of lower back pain ([5]; 0.8% (w/v) in WEP442, lower back): 20 to 24 h | degree of analgesic effect [5]: 4+ | duration of pain relief [5]: ≥ 12 h | pain relief at the treated sites [5]: complete relief of pain | time to pain relief [5]: ≤ 1 min | duration of pain relief [6]: about 2 hours | pain relief [6]: complete relief of pain | time to pain relief [6]: 1 to 2 min

N-Bz-Tyr-Pro-Phe-Phe-NH2 ({Bz′}-YPFF-NH2)
duration of pain relief [4]: about 4 hours | degree of analgesic effect, left hip ([5]; 0.8% (w/v) in WEP442, left hip): 4+ | duration of pain relief, left hip ([5]; 0.8% (w/v) in WEP442, left hip): about 12 hours | pain relief, left hip ([5]; 0.8% (w/v) in WEP442, left hip): complete | duration of pain relief, left knee [5, 8]: about 3 hours | degree of analgesic effect, lower lumbar pain [5, 9]: 4+ | duration of pain relief, lower lumbar pain [5, 9]: about 4 hours | pain relief, lower lumbar pain [5, 9]: responded completely | duration of pain relief, right upper tibia [5]: about 12 hours | degree of analgesic effect, right upper tibia [5, 10]: 4+ | pain relief, right upper tibia [5, 10]: complete | time to pain relief [5]: 2 to 4 min | duration of pain relief [6]: about 10 hours | pain relief [6]: incomplete, but substantial relief of pain | time to pain relief [6]: 4 to 5 min

N-Bz-Tyr-Pro-Phe-Phe-NHOH ({Bz′}-YPFF-{NHOH})
analgesic efficacy rated by the subject ([2]; 1% (w/v) in WEP442, topical): 90% | duration of pain relief ([2]; 1% (w/v) in WEP442, topical): about 10 hours | pain relief [2]: rapid complete relief of pain

N-Fo-Tyr-Pro-Phe-Phe-NH2 (For-YPFF-NH2; SMILES NC(=O)[C@H](Cc1ccccc1)NC(=O)[C@H](Cc1ccccc1)NC(=O)[C@@H]1CCCN1C(=O)[C@H](Cc1ccc(O)cc1)NC=O)
duration of pain relief [4]: about 4 hours | time to pain relief, left hip ([5]; 0.8% (w/v) in WEP442, left hip): about 5 minutes | pain relief, left knee [5, 8]: No relief of pain | duration of pain relief, right upper tibia [5]: 12 h | pain relief, right upper tibia [5, 10]: complete | time to pain relief, right upper tibia [5, 10]: about 4 minutes | duration of pain relief [6]: 2 to 3 h | pain relief [6]: only minimal relief of pain | time to pain relief [6]: 5 to 6 min

N-Pg-Tyr-Pro-Trp-Phe-NH2 [reference compound]
pain relief [7]: slow, minimal relief of pain
